Experimental data: patent US20200345010A1, “FUNGICIDAL OXADIAZOLES” (FMC Corporation, priority 2019, published 2020)
Marks after values point to notes of the source that are not given here.

How the values were obtained:
[1] = test system: Puccinia recondita f. sp. tritici; experiment: Test C: wheat leaf rust control on wheat seedlings; type: in vivo; settings: wheat seedlings sprayed the day before inoculation, 100 = 100% disease control, 0 = none
Description: (§1) General protocol for preparing test suspensions for Tests A-C: the test compounds were first dissolved in acetone in an amount equal to 3% of the final volume and then suspended at the desired concentration (in ppm) in acetone and purified water (50/50 mix by volume) containing 250 ppm of the surfactant PEG400 (polyhydric alcohol esters). The resulting test suspensions were then used in Tests A-C.
The test solution was sprayed to the point of run-off on wheat seedlings. The following day the seedlings were inoculated with a spore suspension of Puccinia recondita f. sp. tritici (the causal agent of wheat leaf rust) and incubated in a saturated atmosphere at 20° C. for 24 h, and then moved to a growth chamber at 20° C. for 7 days, after which time disease ratings were made.
(§2) A rating of 100 indicates 100% disease control and a rating of 0 indicates no disease control (relative to the controls). A dash (-) indicates the compound was not tested.

[2] = test system: Zymoseptoria tritici; experiment: Test B: wheat leaf blotch control on wheat seedlings; type: in vivo; settings: 250 ppm test suspension (asterisk); wheat seedlings sprayed the day before inoculation; 100 = 100% disease control, 0 = none
Description: as §1
The test solution was sprayed to the point of run-off on wheat seedlings. The following day the seedlings were inoculated with a spore suspension of Zymoseptoria tritici (the causal agent of wheat leaf blotch) and incubated in a saturated atmosphere at 24° C. for 48 h, and then moved to a growth chamber at 20° C. for 17 days, after which time disease ratings were made.
as §2

[3] = test system: Phakopsora pachyrhizi; experiment: Test A: Asian soybean rust control on soybean seedlings; type: in vivo; settings: soybean seedlings sprayed the day before inoculation, 100 = 100% disease control, 0 = none
Description: as §1
The test solution was sprayed to the point of run-off on soybean seedlings. The following day the seedlings were inoculated with a spore suspension of Phakopsora pachyrhizi (the causal agent of Asian soybean rust) and incubated in a saturated atmosphere at 22° C. for 24 h, and then moved to a growth chamber at 22° C. for 8 days, after which time visual disease ratings were made.
as §2

[4] = 250 ppm test suspension (asterisk)

Cl.O=S1(=NCc2ccc(-c3noc(C(F)(F)F)n3)cc2)CCNCC1 [Compound 24]
Test C disease control rating [1, 4]: 99* % | melting point: 219 to 223 °C | Test B disease control rating [2]: 18* % | Test A disease control rating ([3]; 10 ppm test suspension): 99%

CS(=O)(=NCc1ccc(-c2noc(C(F)(F)F)n2)cc1)c1cccs1 (stereo not shown) [Compound 27]
Test C disease control rating [1, 4]: 100* % | Test B disease control rating [2]: 98* % | Test A disease control rating ([3]; 10 ppm test suspension): 100%

CS(=O)(=NCc1ccc(-c2noc(C(F)(F)F)n2)cc1)c1ccsc1 (stereo not shown) [Compound 28]
Test C disease control rating [1, 4]: 100* % | Test B disease control rating [2]: 79* % | Test A disease control rating ([3]; 10 ppm test suspension): 100%

CS(=O)(=NCc1ccc(-c2noc(C(F)(F)F)n2)cc1)c1ccc2ccccc2c1 (stereo not shown) [Compound 29]
Test C disease control rating [1, 4]: 99* % | Test B disease control rating [2]: 3* % | Test A disease control rating ([3]; 10 ppm test suspension): 97%

CCCS(=O)(=NCc1ccc(-c2noc(C(F)(F)F)n2)cc1)c1c(F)c(F)c(F)c(F)c1F (stereo not shown) [Compound 37]
Test C disease control rating ([1]; 50 ppm test suspension): 89% | Test B disease control rating [2]: 15* % | Test A disease control rating ([3]; 50 ppm test suspension): 100%

O=S1(=Nc2ccc(-c3noc(C(F)(F)F)n3)cc2)c2ccccc2-c2ccccc21 [Compound 38]
Test C disease control rating ([1]; 10 ppm test suspension): 0% | melting point: 230 to 234 °C | Test B disease control rating [2]: 1* % | Test A disease control rating ([3]; 10 ppm test suspension): 0%

CS(=O)(=Nc1ccc(-c2noc(C(F)(F)F)n2)cc1)c1ccccc1 (stereo not shown) [Compound 39]
Test C disease control rating ([1]; 10 ppm test suspension): 100% | Test B disease control rating [2]: 65* % | Test A disease control rating ([3]; 10 ppm test suspension): 99%

Cc1cc(C)c(S(C)(=O)=NCc2ccc(-c3noc(C(F)(F)F)n3)cc2)c(C)c1 (stereo not shown) [Compound 40]
Test C disease control rating ([1]; 10 ppm test suspension): 0% | Test B disease control rating [2]: 36* % | Test A disease control rating ([3]; 10 ppm test suspension): 91%

O=S1(=NCc2ccc(-c3noc(C(F)(F)F)n3)cc2)c2ccccc2-c2ccccc21 [Compound 41]
Test C disease control rating ([1]; 10 ppm test suspension): 86% | melting point: 120 to 124 °C | Test B disease control rating [2]: 86* % | Test A disease control rating ([3]; 10 ppm test suspension): 97%

CS(=O)(=NCc1ccc(-c2noc(C(F)(F)F)n2)cc1)c1ccccc1C#N (stereo not shown) [Compound 44]
Test C disease control rating ([1]; 10 ppm test suspension): 100% | Test B disease control rating [2]: 0* % | Test A disease control rating ([3]; 10 ppm test suspension): 98%

CS(=O)(=NCc1ccc(-c2noc(C(F)(F)F)n2)cc1)c1cccc(C#N)c1 (stereo not shown) [Compound 45]
Test C disease control rating ([1]; 10 ppm test suspension): 100% | Test B disease control rating [2]: 0* % | Test A disease control rating ([3]; 10 ppm test suspension): 100%

CCCS(C)(=O)=NCc1ccc(-c2noc(C(F)(F)F)n2)cc1 (stereo not shown) [Compound 46]
Test C disease control rating ([1]; 10 ppm test suspension): 100% | Test B disease control rating [2]: 1* % | Test A disease control rating ([3]; 10 ppm test suspension): 100%

O=S1(=NCc2ccc(-c3noc(C(F)(F)F)n3)cc2)CCCC1 [Compound 51]
Test C disease control rating ([1]; 50 ppm test suspension): 100** % | melting point: 58 to 63 °C | Test B disease control rating [2]: 52* % | Test A disease control rating ([3]; 10 ppm test suspension): 100%

CC(N=S(C)(C)=O)c1ccc(-c2noc(C(F)(F)F)n2)cc1 (stereo not shown) [Compound 52]
Test C disease control rating ([1]; 50 ppm test suspension): 98** % | Test B disease control rating [2]: 25* % | Test A disease control rating ([3]; 10 ppm test suspension): 79%
